Measurements taken from patent publication US12161647B2, “Treating hearing loss” (Massachusetts Eye and Ear Infirmary, priority 2012, dated 2024).

Experiments:
[1] = system: inner ear spheres made from Math1-nGFP mice; assay: Hair cell differentiation from utricular spheres of neonatal Math1-nGFP reporter mice; format: cell-based, mouse; conditions: compared with DAPT, L-685458, MDL28170; normalized to DMSO
Description: The utricles and cochleae of 1- to 3-d-postnatal mice of both sexes were dissected, and after careful removal of the nerve trunk and mesenchymal tissues, were trypsinized and dissociated. Dissociated cells were centrifuged, and the pellet was resuspended and filtered through a 70 μm cell strainer (BD Biosciences Discovery Labware) in DMEM/F12 medium with N2/B27 supplement, EGF (20 ng/ml), IGF1 (50 ng/ml), bFGF (10 ng/ml), and heparan sulfate (50 ng/ml) (Sigma). The single cells were cultured in nonadherent Petri dishes (Greiner Bio-One) to initiate clonal growth of spheres (49). Spheres that formed after 2-3 d in culture were passaged every 4-6 d. […]
Cell counting for spheres was performed with MetaMorph software. The cell number was determined from DAPI- or Hoechst-positive nuclei. […] For explants, inner hair cells, outer hair cells, and supporting cells in the outer hair cell region were counted on cochlear whole mounts. […] High-power images of the full-length cochlea or cochlear explant cultures were assembled and analyzed in PhotoShop CS4 (Adobe). ImageJ software (NIH) was used to measure the total length of cochlear whole mounts and the length of individual counted segments. The total number of inner hair cells, outer hair cells, and supporting cells in the outer hair cell region was counted in each of four cochlear segments of 1200-1400 μm (apical, mid-apical, mid-basal, and basal). […]

noise-damaged cochlea = assay: Hair cell number after systemic LY411575 in noise-damaged mice; format: in vivo, mouse; conditions: oral 50 mg/kg for 5 d
Description: 4-week-old mice were exposed free-field, awake and unrestrained, in a small reverberant chamber (22). Acoustic trauma was produced by a 2 h exposure to an 8-16 kHz octave band noise presented at 116 dB SPL. The exposure stimulus was generated by a custom white-noise source, filtered (Brickwall Filter with a 60 dB/octave slope), amplified (Crown power amplifier), and delivered (JBL compression driver) through an exponential horn fitted securely to a hole in the top of a reverberant box.
For systemic administration, LY411575 (50 mg/kg) dissolved in 0.5% (wt/vol) methylcellulose (WAKO) was injected orally once daily for 5 consecutive d. Hearing was measured by ABR at 1 d before, 2 d, 1, 2 week, 1, 2 and 3 months after noise exposure.
For collection of mature mouse cochleae, after being deeply anesthetized with ketamine and xylazine, the mice were transcardially perfused with 0.01 M phosphate buffer (pH 7.4) containing 8.6% sucrose, followed by fixative consisting of freshly depolymerized 4% paraformaldehyde in 0.1 M phosphate buffer (pH 7.4). […] Primary antibodies were detected with secondary antibodies conjugated with Alexa 488, 568, and 647 (Molecular Probes) and viewed by confocal fluorescence microscopy (TCS SP5, Leica). […]
Cell counting for spheres was performed with MetaMorph software. The cell number was determined from DAPI- or Hoechst-positive nuclei. […]

C[C@H](NC(=O)[C@@H](O)c1cc(F)cc(F)c1)C(=O)N[C@@H]1C(=O)N(C)c2ccccc2-c2ccccc21 [LY411575, N-2((2S)-2-(3,5-difluorophenyl)-2-hydroxyethanoyl)-N1-((7S)-5-methyl-6-oxo-6,7-dihydro-5H-dibenzo[b,d]azepin-7-yl)-l-alaninamide]
potency for hair cell induction (nGFP-positive cells to DAPI-positive cells) among the four γ-secretase inhibitors [1]: highest potency | outer hair cell numbers (noise-damaged cochlea): increased
